Like-named read-outs stand apart in the source and are kept apart here.
Tested on: nuclear p27 in LNCaP-S14 cells
Type: cell-based, human
[1] = primary screening, nuclear p27 in LNCaP-S14 cells
[2] = primary screening, S = strong, M = medium, W = weak by Z score

| SMILES | Z score (aver) [1] | Clasf [2] | Clasf | Z score (aver) |
| --- | --- | --- | --- | --- |
| COc1cc(OC)c(CN2CCC(NC(=O)c3ccc(-n4nc(C(C)(C)C)cc4C(C)(C)C)cc3)C2)c(OC)c1 (stereo not shown) [567D12] | 8.89 | S (strong (Z score > 5)) | – | – |
| O=C(NC1=C(Cl)C(=O)c2ccccc2C1=O)OC1CCCCCCC1 [567K05] | 2.74 | W (weak (Z score 2-3) | – | – |
| O=C(OCn1ncc(Cl)c(Cl)c1=O)c1cccc(C(F)(F)F)c1 [567M11] | 4.23 | M (medium (Z score 3-5)) | – | – |
| O=C(OCn1ncc(Cl)c(Cl)c1=O)c1ccc(C(F)(F)F)cc1 [567M13] | – | S (strong (Z score > 5)) | – | – |
| O=C(NCCCn1ccnc1)OCc1ccc(C#Cc2ccccc2)s1 [567M14] | 2.83 | W (weak (Z score 2-3) | – | – |
| COc1ccc2[nH]cc(CCNC(=O)OCC3CC4CCC3C4)c2c1 (stereo not shown) [567M20] | 4.13 | M (medium (Z score 3-5)) | – | – |
| O=C1c2ccccc2C(=O)N1Oc1ccc([N+](=O)[O-])c([N+](=O)[O-])c1 [669F07] | 3.84 | M (medium (Z score 3-5)) | – | – |
| Cc1ccc(C(=O)C2C(c3ccccc3I)C(C#N)(C#N)C3c4ccccc4C=CN23)cc1 (stereo not shown) [669K08] | 2.72 | W (weak (Z score 2-3) | – | – |
| CC(=O)C1C(c2cccc(I)c2)C(C#N)(C#N)C2C=Cc3ccccc3N12 (stereo not shown) [669K10] | 3.55 | M (medium (Z score 3-5)) | – | – |
| N#CC1(C#N)C(c2cccc(I)c2)C(C(N)=O)N2C=Cc3ccccc3C21 (stereo not shown) [669M10] | 6.90 | S (strong (Z score > 5)) | – | – |
| N#CC1(C#N)C(c2ccccc2I)C(C(=O)C23CC4CC(CC(C4)C2)C3)N2c3ccccc3C=CC21 (stereo not shown) [669O10] | 6.23 | S (strong (Z score > 5)) | – | – |
| Cc1ccc(C)n1-c1ccccc1CNS(=O)(=O)c1ccc(Cl)cc1 [669P04] | 5.53 | S (strong (Z score > 5)) | – | – |
| COc1ccc(C2=NN3C(C2)c2cc(Cl)ccc2OC32CCCC2)cc1 (stereo not shown) [1157E14] | 4.67 | M (medium (Z score 3-5)) | – | – |
| N#Cc1cc2c(nc1SCC(=O)Nc1ccccc1F)CCCCC2 [1158J04] | 2.92 | W (weak (Z score 2-3) | – | – |
| COc1ccccc1N1CCN(C(=O)CSc2nc3ccccc3c(=O)n2CCC(=O)NC2CCCCC2)CC1 [1158L12] | 2.46 | W (weak (Z score 2-3) | – | – |
| CCOC(=O)C1=C(C)N=c2sc(=Cc3ccc(N(CC)CC)o3)c(=O)n2C1c1ccccc1OC (stereo not shown) [1158M07] | 11.51 | S (strong (Z score > 5)) | – | – |
| COc1ccccc1C1Oc2ccc(Cl)cc2C2CC(c3ccc(Cl)cc3)=NN21 (stereo not shown) [1158M11] | 4.34 | M (medium (Z score 3-5)) | – | – |
| C=CCN1C(=O)CC(C(=O)Nc2ccc(OC)cc2)SC1=Nc1ccc(Cl)cc1 (stereo not shown) [1158M12] | 2.69 | W (weak (Z score 2-3) | – | – |
| CCOC(=O)C1=C(C)N=c2sc(=Cc3ccc(N4CCOCC4)o3)c(=O)n2C1c1ccc2c(c1)OCO2 (stereo not shown) [1158O07] | 8.87 | S (strong (Z score > 5)) | – | – |
| CC(=O)C1=C(C)NC(SCC(=O)c2ccc(Cl)cc2Cl)=C(C#N)C1c1sccc1C (stereo not shown) [1159B21] | 2.34 | W (weak (Z score 2-3) | – | – |
| O=[N+]([O-])C(=C(Cl)Sc1ccccc1)C(Cl)=C(Cl)Cl [1159C10] | 2.72 | W (weak (Z score 2-3) | – | – |

| SMILES | Z score (aver) [1] | Clasf [2] | Clasf | Z score (aver) |
| --- | --- | --- | --- | --- |
| COc1ccc2c(c1)OC1(C=C2)N(C)c2ccccc2C1(C)C (stereo not shown) [1159E12] | 12.29 | S (strong (Z score > 5)) | – | – |
| COC(=O)C1=C(N)n2c(sc(=Cc3ccc(Cl)cc3)c2=O)=C(C(=O)OC)C1c1ccc(Cl)cc1 (stereo not shown) [1159F17] | 2.15 | W (weak (Z score 2-3) | – | – |
| N#Cc1c(N)nc(SCC(=O)NCc2ccccc2)c(C#N)c1-c1cccs1 [1159G21] | 3.48 | M (medium (Z score 3-5)) | – | – |
| Cc1ccc(-c2cn3c([n+]2-c2ccc(C)cc2)CCCCC3)cc1 [1159I14] | 2.49 | W (weak (Z score 2-3) | – | – |
| COc1ccc(Br)cc1C1CC(=O)Nc2c1ccc1ccccc21 (stereo not shown) [1159L15] | 2.32 | W (weak (Z score 2-3) | – | – |
| COc1ccc(-c2nc3c4ccccc4c4ccccc4c3[nH]2)c(OC)c1 [1160C13] | 2.90 | W (weak (Z score 2-3) | – | – |
| O=C1C2C3c4ccccc4C(CO)(c4ccccc43)C2C(=O)N1c1ccc(Br)cc1 (stereo not shown) [1160E22] | 2.44 | W (weak (Z score 2-3) | – | – |
| COc1cc(C(=O)N2c3ccc(C)cc3-c3c(ssc3=S)C2(C)C)cc(OC)c1OC [1160F11] | 3.09 | M (medium (Z score 3-5)) | – | – |
| CCNC(=O)C=C1NC(C)(C)Cc2c1ccc1ccccc21 [1160G14] | 2.31 | W (weak (Z score 2-3) | – | – |
| Sc1nnc2c3ccccc3n(CCc3ccccc3)c2n1 [1160H09] | 2.51 | W (weak (Z score 2-3) | – | – |
| CN(C)c1ccc(C=CC=CC23NC(=O)CN2c2ccccc2C3(C)C)cc1 (stereo not shown) [1160J08] | 4.94 | M (medium (Z score 3-5)) | – | – |
| N#CC1=C(N)C(C#N)(C#N)C(c2ccc(Br)cc2)C2CN(Cc3ccccc3)CC=C12 (stereo not shown) [1160K18] | 2.90 | W (weak (Z score 2-3) | – | – |
| COc1ccccc1C(=O)N1c2ccccc2Sc2ccccc21 [1160M09] | 2.71 | W (weak (Z score 2-3) | – | – |
| Cc1ccc(C)c2c1-c1ccccc1S(=O)(=O)N2S(=O)(=O)c1ccccc1 [1160M11] | 2.11 | W (weak (Z score 2-3) | – | – |
| Cc1nc(NCCc2c[nH]c3ccccc23)cc(-c2ccc(F)cc2)n1 [1306E02] | 3.02 | M (medium (Z score 3-5)) | – | – |
| CCN(CC)c1cc(-c2ccc(F)cc2)nc(-c2ccncc2)n1 [1306I06] | 3.11 | M (medium (Z score 3-5)) | – | – |
| Fc1ccc(-c2cc(NCc3ccc(Cl)cc3)nc(-c3ccncc3)n2)cc1 [1306I08] | 3.44 | M (medium (Z score 3-5)) | – | – |
| COC(=O)c1c(-c2c(Cl)cccc2Cl)noc1C=CN(C)C [1306I21] | 4.49 | M (medium (Z score 3-5)) | – | – |
| Fc1ccc(-c2cc(NC3CC3)nc(-c3ccncc3)n2)cc1 [1306K08] | 3.56 | M (medium (Z score 3-5)) | – | – |
| CCCN1CCC(N(C(=O)c2cccc(C(F)(F)F)c2)c2ccc3[nH]c(C(C)(C)C)cc3c2)CC1 [1306L20] | 6.78 | S (strong (Z score > 5)) | – | – |
| CCC1(O)C(=O)OCc2c1cc1n(c2=O)Cc2cc3c(O)cccc3nc2-1 (stereo not shown) [1361B06] | 7.99 | S (strong (Z score > 5)) | – | – |

| SMILES | Z score (aver) [1] | Clasf [2] | Clasf | Z score (aver) |
| --- | --- | --- | --- | --- |
| C=CCNC1=C2CC(C)CC(OC)C(O)C(C)C=C(C)C(OC(N)=O)C(OC)C=CC=C(C)C(=O)NC(=CC1=O)C2=O (stereo not shown) [1361H16] | 3.92 | M (medium (Z score 3-5)) | – | – |
| COC1=CC(C)=CC(C)C(O)C(C)CC(C)=CC=CC(OC)C(C(C)C(O)C(C)C2CC(O)C(C)C(C(C)C)O2)OC1=O (stereo not shown) [1361J12] | 4.65 | M (medium (Z score 3-5)) | – | – |
| CC=C(C)C(=O)OC1C(C)=C2C(C1OC(=O)CCCCCCC)C(C)(OC(C)=O)CC(OC(=O)CCC)C1(O)C2OC(=O)C1(C)O (stereo not shown) [1361L03] | 8.27 | S (strong (Z score > 5)) | – | – |
| CNc1ccc2oc(CC3OC4(CCC3C)OC(C(C)C(=O)c3ccc[nH]3)C(C)CC4C)nc2c1C(=O)O (stereo not shown) [1361O18] | 8.06 | S (strong (Z score > 5)) | – | – |
| N#CC(C#N)=NNc1ccc(OC(F)(F)F)cc1 [1362E11] | – | – | S (key: S: strong (Z score > 5); M: medium (Z score 3-5); W: weak (Z score 2-3) | 6.18 |
| CC1OC(=O)C(C(C)C)NC(=O)C(C(C)C)OC(=O)C(C(C)C)NC(=O)C(C)OC(=O)C(C(C)C)NC(=O)C(C(C)C)OC(=O)C(C(C)C)NC(=O)C(C)OC(=O)C(C(C)C)NC(=O)C(C(C)C)OC(=O)C(C(C)C)NC1=O (stereo not shown) [1362N07] | 7.42 | S (strong (Z score > 5)) | – | – |
| COCC1OC(=O)c2coc3c2C1(C)C1=C(C3=O)C2CCC(=O)C2(C)CC1OC(C)=O (stereo not shown) [1362N13] | 6.65 | S (strong (Z score > 5)) | – | – |
| CCOC(=O)c1cc(C#N)c(Sc2ccc(C)cc2)nc1C(F)(F)F [1520B07] | 5.43 | S (strong (Z score > 5)) | – | – |
| CC1=NC(=Cc2sccc2C)C(=O)O1 [1520B10] | 2.27 | W (weak (Z score 2-3) | – | – |
| COc1ccc(OCC(=N)NC(=S)Nc2ccc(Cl)cc2)cc1 [1520B19] | 2.51 | W (weak (Z score 2-3) | – | – |
| O=C(CSC1=NNC(c2ccccn2)S1)c1cccc(F)c1 (stereo not shown) [1520D17] | 4.91 | M (medium (Z score 3-5)) | – | – |
| Cc1cc(Br)ccc1NC(=O)CCCc1c[nH]c2ccccc12 [1520E21] | 4.74 | M (medium (Z score 3-5)) | – | – |
| COc1ccc(SC(=O)c2cc(C)n(Cc3c(Cl)cccc3Cl)n2)cc1 [1520J06] | 3.39 | M (medium (Z score 3-5)) | – | – |
| CCCNC(=O)Nc1nc(Nc2ccc(Cl)cc2)n[nH]1 [1520J18] | 3.47 | M (medium (Z score 3-5)) | – | – |
| Cc1onc(-c2c(Cl)cccc2Cl)c1-c1csc(CCn2c(=O)oc3ccccc32)n1 [1520L12] | 2.13 | W (weak (Z score 2-3) | – | – |
| O=c1c(C(F)(F)F)cccn1CCc1nc(-c2ccccc2)cs1 [1520N01] | 3.32 | M (medium (Z score 3-5)) | – | – |
| Cc1cc(C(=O)Sc2cccc(Br)c2)nn1C(C)(C)C [1520N02] | 5.16 | S (strong (Z score > 5)) | – | – |
| CC(C)c1ccc(NC(=O)N2CCCN(CCOc3ccccc3)CC2)cc1 [1520P16] | 2.72 | W (weak (Z score 2-3) | – | – |
| C=C(CC)C(=O)c1ccc(OCC(=O)O)c(Cl)c1Cl [1568D20] | 3.20 | M (medium (Z score 3-5)) | – | – |
